{"source": "patent US20190038667A1", "about": "“APPLICATION OF FULLERENE/METAL-FULLERENE FOR PREPARING PHARMACEUTICAL PRODUCT” (BEIJING FU NA KANG BIOTECHNOLOGY CO., LTD., priority 2016, published 2019)", "key": {"ICR mice [1]": {"test_system": "ICR mice", "test": "Influence of GFNC on therapeutic effects of CTX on tumors and toxic experiment", "protocol": "Blank control group: The injected drugs in the experimental groups were replaced with equal volumes of normal saline.\nMetallofullerene derivative (GFNC) experimental group: Mice were injected intravenously with a GFNC solution at a dosage of 0.04 mmol of Gd^3+/kg of body weight of mice.\nCTX+GFNC experimental group: Mice were injected intraperitoneally with a CTX solution at a dosage of 60 mg/kg of body weight of mice, and GFNC solution was injected intravenously at a dosage of 0.04 mmol of Gd^3+/kg of body weight of mice.\nInjection of drugs was initiated on the 7th day after tumor inoculation, which was marked as the first day of the experiment. Intraperitoneal injection of CTX or intravenous injection of GFNC was conducted once a day for 5 consecutive days, and weights of mice and tumor diameters were measured every two days; thereafter, on the 17th day, mice were fetched and their eye balls were removed, and blood was taken respectively from their orbits; then, the blood was placed in a 5 ml centrifuge tube where it was centrifuged for 15 minutes at a rotational speed of 3,500 rpm; after that, a resultant serum was transferred into a 200 μL centrifuge tube, and blood biochemical indexes (e.g., ALT, ALP, AST, BUN, LDH and UA) of the mice were detected in a blood biochemical instrument; after mice were sacrificed by cervical dislocation, their main tissues and organs (hearts, livers, spleens, lungs and kidneys) were taken and weighed, and were then soaked in a 4% formalin solution; thereafter, histopathological section was conducted, and then, H&E staining was conducted. The blank control group, the cyclophosphamide (CTX) experimental group and the metallofullerene experimental group (GFNC) were processed in the same way for comparison."}, "ICR mice [2]": {"test_system": "ICR mice", "conditions": "second course", "protocol": "(§1) Animal models: ICR mice aged 4-5 weeks were selected and assigned randomly into 5 groups with 6 mice per group.\n100 μL of normal saline was administered intragastrically so as to eliminate the difference influenced by intragastric stimulation on mice.\n(§2) Blank control group: The CTX solution injected in the experimental group was replaced with equal volumes of normal saline, and normal saline of the volume equal to 100 μL was administered intragastrically or intraperitoneally to replace Olive-C60 or olive oil.\n(§3) The second course started 20 days after the day when the first course was initiated and mice were basically recovered. In other words, the 21st day of the first course was marked as the first day of the second course. Thereafter, intraperitoneal injection of CTX was conducted once a day for 5 consecutive days; and Olive-C60 or olive was administered intragastrically or intraperitoneally. 5 days later, no drug was given; and only observation or sampling was conducted.\nEffects of Olive-C60 on myelosuppression in the second course on an intravital level: blood (13 μl) was taken from orbits of mice on the 4th day, the 7th day, the 10th day and the 17th day of the second course respectively, and was placed in a 3 ml centrifuge tube, and the blood routine examination was conducted using a blood cell automatic analyzer, wherein the main indexes related to myelosuppression are white blood cell counts (WBC), platelet counts (PLT), red blood cell counts (RBC) and hemoglobin determination (HGB). Meanwhile, changes in the weight of mice were monitored."}, "ICR mice [3]": {"test_system": "ICR mice", "conditions": "first course", "protocol": "as §1, §2\nAfter ICR mice aged 4-5 weeks were bred in a laboratory, CTX solutions were injected on the seventh day when their conditions were stable, which was marked as the first day of the experiment. Intraperitoneal injection of CTX was conducted once a day for 5 consecutive days; meanwhile, Olive-C60 or Olive or the normal saline was administered intragastrically or intraperitoneally. 5 days later, no injection was made, and only observation or sampling was conducted.\nEffects of Olive-C60 on myelosuppression in the first course on an intravital level: blood (13 μl) was taken from orbits of mice on the 4th day, the 7th day, the 10th day and the 17th day respectively, and was placed in a 3 ml centrifuge tube, and the blood routine examination was conducted using a blood cell automatic analyzer, wherein the main indexes related to myelosuppression are white blood cell counts (WBC), platelet counts (PLT), red blood cell counts (RBC) and hemoglobin determination (HGB). Meanwhile, changes in the weight of mice were monitored."}, "ICR mice [4]": {"test_system": "ICR mice", "test": "Effects of Olive-C60 on blood biochemical indexes in the second course (serum)", "format": "in vivo", "conditions": "18th day, versus blank control group", "protocol": "as §1, §3\nEffects of Olive-C60 on blood biochemical indexes in the second course on an intravital level: On the 18th day of the second course of the experiment, whole blood was taken from orbits, serums were obtained by centrifugation, and blood biochemical indexes were tested."}, "ICR mice [5]": {"test_system": "ICR mice", "test": "Protection on myelosuppression caused by CTX in H22 tumor mice (blood routine examination)", "format": "in vivo", "protocol": "Blank control group: The drugs injected either intragastrically or intraperitoneally in the experimental groups were replaced with equal volumes of normal saline.\nGFNC experimental group: Mice were injected with a GFNC aqueous solution (1 mM) via caudal veins at a dosage of 0.004 mmol of GFNC/kg of body weight of mice.\nCTX+GFNC experimental group: Mice were injected intraperitoneally with a CTX solution at a dosage of 60 mg/kg of body weight of mice, and GFNC solution was injected intravenously at a dosage of 0.004 mmol of GFNC/kg of body weight of mice.\nInjection of drugs was initiated on the 7th day after tumor inoculation, which was marked as the first day of the experiment. Intraperitoneal injection of CTX or intravenous injection of GFNC was conducted once a day for 5 consecutive days; thereafter, blood (20 μl) was taken respectively from orbits of mice on the 4th day, the 7th day, the 10th day, the 14th day and the 17th day, and was placed in a 3 ml centrifuge tube, and the blood routine examination was conducted using a blood cell automatic analyzer, wherein the main indexes related to myelosuppression are white blood cell counts (WBC), platelet counts (PLT), hemoglobin determination (HGB) and monocyte proportion (MO %).\nAnimal model: ICR mice aged 4-5 weeks were selected and assigned randomly into 4 groups with 6 mice per group. […]"}, "ICR mice [6]": {"test_system": "ICR mice", "test": "Effects of Olive-C60 on relevant enzyme activities in the second course (serum)", "format": "in vivo", "conditions": "18th day, Olive-C60 intragastrically with CTX, or CTX alone, versus blank control group", "protocol": "as §1, §3\nEffects of Olive-C60 on relevant enzyme activities in the second course on an intravital level: On the 18th day of the second course of the experiment, whole blood was taken from orbits, serums were obtained by centrifugation, and different relevant enzyme activities were tested."}, "[7]": {"conditions": "17th day, CTX alone or CTX+GFNC"}, "[8]": {"conditions": "CTX 60 mg/kg i.p. x5 days alone"}}, "note": "Like-named read-outs stand apart in the source and are kept apart here."}
{"molecule": "O=P1(N(CCCl)CCCl)NCCCO1", "note": "(stereo not shown) [CTX, cyclophosphamide]", "values": [{"measurement": "histopathological sections of main tissues and organs (H&E staining)", "setting": "ICR mice [1]; [7]", "value": "damaged to a certain extent"}, {"measurement": "pathological sections of tumor sites: cells of tumor tissues", "setting": "ICR mice [1]; [7]", "value": "die in great quantity"}, {"measurement": "weight of mice", "setting": "ICR mice [1]; CTX 60 mg/kg i.p. x5 days alone or with GFNC 0.04 mmol of Gd3+/kg intravenously", "value": "drops obviously in the initial stage of drug injection"}, {"measurement": "white blood cells on the 17th day", "setting": "ICR mice [2]; 17th day, CTX alone or with Olive-C60", "value": "still below their normal levels"}, {"measurement": "white blood cells, red blood cells, platelets and hemoglobin compared with the blank control group", "setting": "ICR mice [2]; [8]", "value": "varying degrees of reduction"}, {"measurement": "weight of mice", "setting": "ICR mice [2]; CTX alone or with Olive-C60", "value": "differs greatly from that of the mice in other groups"}, {"measurement": "weight of mice", "setting": "ICR mice [2]; CTX alone or with Olive-C60, listed as cyclophosphamide", "value": "lower than that of the mice in any other groups"}, {"measurement": "white blood cells, red blood cells, platelets and hemoglobin compared with the blank control group", "setting": "ICR mice [3]; [8]", "value": "varying degrees of reduction"}, {"measurement": "weight of mice", "setting": "ICR mice [3]; CTX 60 mg/kg i.p. x5 days, alone or with Olive-C60 100 μL (1,500 ppm), after termination of CTX injection / later stage", "value": "lower than that of the mice in any other groups"}, {"measurement": "level of uric acid in the serum", "setting": "ICR mice [4]", "value": "far lower than that in the serum of mice in the blank control group"}, {"measurement": "monocytes", "setting": "ICR mice [5]; CTX 60 mg/kg i.p. x5 days alone or with 0.004 mmol/kg material intravenously x5 days", "value": "abnormal hyperplasia"}, {"measurement": "white blood cells, platelets and hemoglobin", "setting": "ICR mice [5]; H22 tumor mice, CTX 60 mg/kg i.p. x5 days alone (versus blank control) or with 0.004 mmol/kg material intravenously x5 days (versus CTX group)", "value": "varying degrees of reduction"}, {"measurement": "level of MDA", "setting": "ICR mice [6]", "value": "higher than that of mice in the blank control group"}]}
